Measurements: publication PMC8002351, “Triterpenes and Phenolic Compounds from the Fungus Fuscoporia torulosa: Isolation, Structure Determination and Biological Activity” (Molecules, 2021)

Tests used:
DPPH assay = details: 30 min; 550 nm
Protocol: A method based on the description of Miser-Salihoglu E. et al. was applied. The examination was performed on a FLUOstar Optima BMG Labtech plate-reader with 96-well microplates. The samples were measured in a DMSO environment with the volume of 150 µL per sample resulting 1 mg/mL concentration. Every well contained 50 µL (100 µM) of this base solution for the absorbance measurement (30 min; 550 nm). […] For data evaluation GraphPad Prism 6.0 software was utilized. The DPPH (2,2′-diphenyl-1-picrylhydrazyl) reagent necessary for the process was supplied by from Sigma-Aldrich Hungary.

ORAC assay = details: Trolox equivalent
Protocol: A method based on the description of Mielnik et al. was applied. In summary, 20 µL of the samples were used in 0.01 mg/mL concentration with a 96-well black microplate. In each well, 60 µL of AAPH (12 mM final concentration) and 120 µL of fluorescein solution (70 nM final concentration) were added. The fluorescence alteration of each sample was measured for 3 h with 1.5 min cycle intervals by a FLUOstar Optima BMG Labtech plate-reader. Trolox ((±)-6-hydroxy-2,5,7,8-tetramethyl-chromane-2-carboxylic acid) was used as a standard. Both Trolox and AAPH was supplied by Sigma-Aldrich, Hungary, while Fluorescein was provided by Fluka analytical, Japan. For data analysis, the GraphPad Prism 6.0 software was used. The results were expressed as mmol Trolox equivalent per g of dry material (mmloTE/g).

O=C1O[C@H]([C@@H](O)CO)C(O)=C1O [Ascorbic acid, ascorbic acid]
DPPH EC50 (DPPH assay): 0.89 ± 0.02 µg/mL | ORAC Activity (ORAC assay): 6.94 ± 0.58 mmol TE/g
